Source: paper PMC9821308, “The Inhibitory Properties of a Novel, Selective LMTK3 Kinase Inhibitor” (International Journal of Molecular Sciences, 2023)

Assays:
[1] = target: MKNK1 (Homo sapiens, UniProt Q9BUB5); assay: KINOMEscan active site-directed competition binding at […]; also radioactive filter binding assay at […]
[2] = target: PDGFRA (Homo sapiens, UniProt P16234); assay: as above
[3] = target: T1, LMTK3 (lemur tyrosine kinase 3) (Homo sapiens, UniProt Q96Q04); assay: microscale thermophoresis; also […] kinase assay on HSP27 (IC50 approximately […]); format: binding
T1 construct: LMTK3cat (LMTK3 kinase domain)
T1 sequence (Q96Q04 133-411 limits assumed): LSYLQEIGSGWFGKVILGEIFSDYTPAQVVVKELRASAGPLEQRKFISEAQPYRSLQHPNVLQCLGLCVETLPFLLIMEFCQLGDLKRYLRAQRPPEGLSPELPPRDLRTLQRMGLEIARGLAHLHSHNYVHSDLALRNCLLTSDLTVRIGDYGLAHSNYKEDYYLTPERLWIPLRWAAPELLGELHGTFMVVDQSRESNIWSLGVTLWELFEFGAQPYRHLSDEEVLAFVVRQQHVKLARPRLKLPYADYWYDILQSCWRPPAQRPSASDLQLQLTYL

[4] = target: MKNK2 (Homo sapiens, UniProt Q9HBH9); assay: KINOMEscan active site-directed competition binding at […]; also radioactive filter binding assay at […]
[5] = target: T2, TRKA (Homo sapiens, UniProt P04629); assay: KINOMEscan active site-directed competition binding at […] ([…]); also radioactive filter binding assay at […]
T2 construct: gene NTRK1

[6] = target: PIM1 (Homo sapiens, UniProt P11309); assay: KINOMEscan active site-directed competition binding at […]; also radioactive filter binding assay at […]

In the case of Clc1ccc(-c2cnc3sc(NCc4cccnc4)nn23)cc1 [C36], the “KINOMEscan active site-directed competition binding at 5 μM; also radioactive fi” value [1] is reported as “overlap of kinases targeted by C36 that have been identified via both assays (namely PIM1, TRKA, PDGFRA, MKNK1, MKNK2)”, the “KINOMEscan active site-directed competition binding at 5 μM; also radioactive fi” value [2] is reported as “overlap of kinases targeted by C36 that have been identified via both assays (namely PIM1, TRKA, PDGFRA, MKNK1, MKNK2)” and the Kd [3] is reported as 1870 ± 200 nM. The “KINOMEscan active site-directed competition binding at 5 μM; also radioactive fi” value [4] was “overlap of kinases targeted by C36 that have been identified via both assays (namely PIM1, TRKA, PDGFRA, MKNK1, MKNK2)”, the “KINOMEscan active site-directed competition binding at 5 μM (>90%); also radioac” value [5] was “overlap of kinases targeted by C36 that have been identified via both assays (namely PIM1, TRKA, PDGFRA, MKNK1, MKNK2)” and the “KINOMEscan active site-directed competition binding at 5 μM; also radioactive fi” value [6] was “overlap of kinases targeted by C36 that have been identified via both assays (namely PIM1, TRKA, PDGFRA, MKNK1, MKNK2)”.
